Columns and labels:
Shelf life = assay type: physicochemical; details: ambient temperatures
[1] = test system: ATT-20 cells (anterior lobe of the pituitary gland, corticotrophs); test: Storage of ATT-20 cells at low temperature, viability by well bottom coverage; assay type: cell-based; details: 10% Glycerol
Description: (§1) The goal of the study was to assess the influence of Glucural on cell recovery of different mammalian cells suspended in various cryo-protectors. A single layer of the rat thyroid-derived cell line FRTL-5 was grown in VPF-12 medium containing 10% calf serum (C.S.) in Petri dishes (10 cm) stored in an environment of 5% CO2, 100% humidity and at 37° C. Cell coverage on the Petri dish bottom reached 80-90% over 6-8 days. A single-layer cell culture of the cell line from the anterior lobe of the pituitary gland (corticotrophs) of ATT-20 was grown in similar fashion but in D-MEM medium containing 10% C.S.
(§2) After exposure, cell suspensions were melted quickly in aliquots with cell suspension equal to 0.2 or 0.4 ml per well. The growing period varied depending on conditions of cell storage. All trials were performed in duplicate. Cell viability was estimated by the percentage of the well bottom covered by cells.
(§3) The same method was used here as in tests with MEL cells. Cryo-protectors used were not optimal for FRTL-5 and ATT-20 cells. Conditions of freezing were not optimal in assays # 1, 5 and 6.

[2] = test system: rat thyroid-derived cell line FRTL-5; test: Storage of FRTL-5 cells at low temperature, viability by well bottom coverage; assay type: cell-based
Description: as §1, §2, §3

Saccaramices Cerevisiae = test: Viability of lyophilized yeast; assay type: cell-based; details: added prior to lyophilization
Description: The lyophilization of yeast is a very common technique used in different fields of industry, biotechnology and research. The viability of lyophilized yeast species and strains can vary greatly. The viability of commercial baking yeast after lyophilization is high (50-80%). But other strains of yeast used in industry and research, can have viability as low as […]. […] Glucural was tested using the strain of yeast called Saccaramices Cerevisiae, a strain with a very low level of viability after lyophilization. By increasing the viability of lyophilized yeast inoculums, the amount of yeast required to make such inoculums may be lowered.
The standard method of lyophilization was used. […] The suspensions were aliquoted and lyophilized at standard conditions.
To assay the vitality of lyophilized yeast, two approaches were used:
The lyophilized yeast from an ampoule was re-suspended in 1 ml of regular growing medium and diluted by 10, 100, and 1,000 times. The suspensions of yeast were plated on the regular YPD agarose medium by 20 mkl per plate. After growing the colonies for 48 hours at 28° C., the number of colonies was counted.
This test included growing lyophilized yeast in 10 ml of growth medium for 24 hours, before plating on the agarose plates as described above.
The viability of the yeast strain tested increased by a factor of between 50 to 100 compared to the control group.

[3] = test system: HUCVEC exposed to human TNF-alpha; test: HUCVEC Assays 4-6: exposure to human TNF-alpha, trypan-blue test; assay type: cell-based; details: Glucural 500 mkg/ml
Description: To test for cell damage, HUCVEC were exposed for period of 6 to 24 hours to the human TNF-alpha. The trypan-blue test was used. After exposure, mono-layers were removed by trypsin treatment. Results were estimated based on the percentage of colored dead cells in the mono-layer.

MEL cells = test: Mild damage: cells damaged by one freeze/thaw cycle; assay type: cell-based, mouse; details: 24 hours
Description: Mild Damage: Influence of Glucural on cells damaged by one-freeze/thaw cycle. Cells were treated exactly as above except that they were subjected to one freeze/thaw cycle (in the absence of cryo-protector) prior to incubation at 37° C. for 24 hours.

Substance: complex of 2,4-dihydroxy-6-methylpyrimidine with N-methyl-D-glucamine [Glucural]
- shelf life (Shelf life): more than 10 years
- Percentage of well bottom covered by cells ([1]; #4 AtT-20 (3 days), −190° C., Glucural 50 mg/ml): 50-60%
- Percentage of well bottom covered by cells ([1]; #4 AtT-20 (3 days), −190° C., Glucural 100 mg/ml): 80-90%
- Percentage of well bottom covered by cells ([1]; #5 AtT-20 (44 days), −70° C., Glucural 100 mg/ml): 40-50%
- Percentage of well bottom covered by cells ([1]; #5 AtT-20 (44 days), −70° C., Glucural 200 mg/ml): 30-40%
- Percentage of well bottom covered by cells ([1]; #6 AtT-20 (46 days), −70° C., additional melting freezing, Glucural 100 mg/ml): 20-30%
- Percentage of well bottom covered by cells ([1]; #6 AtT-20 (46 days), −70° C., additional melting freezing, Glucural 200 mg/ml): 10-20%
- Percentage of well bottom covered by cells ([2]; #1 FRTL-5 (4 days), 10% Glycerol, −70° C., Glucural 100 mg/ml): 90-100%
- Percentage of well bottom covered by cells ([2]; #1 FRTL-5 (4 days), 10% Glycerol, −70° C., Glucural 200 mg/ml): 90-100%
- Percentage of well bottom covered by cells ([2]; #2 FRTL-5 (36 days), 10% Glycerol, −190° C., Glucural 100 mg/ml): 10-15%
- Percentage of well bottom covered by cells ([2]; #3 FRTL-5 (4 days), 50% C.S., 0° C., 30 min, Glucural 100 mg/ml): 60-70%
- Percentage of well bottom covered by cells ([2]; #3 FRTL-5 (4 days), 50% C.S., 0° C., 30 min, Glucural 200 mg/ml): 60-70%
- optimal dose to protect yeast cells (Saccaramices Cerevisiae): 25 mkg/ml
- Percent of dead cells in mono-layer ([3]; Assay 4, 24 hours, TNF-alpha 20 ng/ml): 10.3 ± 1.3%
- Percent of dead cells in mono-layer ([3]; Assay 4, 24 hours, no TNF-alpha): 4.4 ± 0.4%
- Percent of dead cells in mono-layer ([3]; Assay 5, 8 hours, TNF-alpha 10 ng/ml): 4.1 ± 0.4%
- Percent of dead cells in mono-layer ([3]; Assay 5, 8 hours, TNF-alpha 20 ng/ml): 5.4 ± 0.4%
- Percent of dead cells in mono-layer ([3]; Assay 5, 8 hours, no TNF-alpha): 5.7 ± 0.5%
- Percent of dead cells in mono-layer ([3]; Assay 6, 6 hours, TNF-alpha 40 ng/ml): 10.9 ± 3.4%
- Percent of dead cells in mono-layer ([3]; Assay 6, 6 hours, no TNF-alpha): 13.8 ± 2.7%
- number of cells per ml, Mild damage (MEL cells; Glucural 25 mkg/ml): 36 x 10^4
- number of cells per ml, Mild damage (MEL cells; Glucural 50 mkg/ml): 53 ± 5 x 10^4
- number of cells per ml, Mild damage (MEL cells; Glucural 100 mkg/ml): 40 ± 1 x 10^4
- number of cells per ml, Mild damage (MEL cells; Glucural 200 mkg/ml): 45 ± 0 x 10^4
- number of cells per ml, Mild damage (MEL cells; Glucural 400 mkg/ml): 31 ± 1 x 10^4
